“Also recorded” adds a separate entry of the source.
How the values were obtained:
TLR 2/1 = target: T1, TLR 2/1 (Mus musculus, UniProt Q9EPQ1+Q9QUN7); experiment: Pam3Cys-induced TNFα release by RAW264.7 cells (TLR 2/1 antagonism); type: cell-based; conditions: for suppression of TLR 2/1 activation (TNFα release): Pam3Cys, 4 hours; for TLR2/1 antagonist activity: reduction in cytokine secretion vs activating TLR ligand alone
T1 construct: endogenous in cells; host or cells: RAW264.7 (ATCC)
Protocol: The mouse macrophage cell line, RAW264.7, was obtained from ATCC and maintained in DMEM, supplemented with 10% bovine growth serum and 1× penicillin streptomycin. Cells were maintained at 37° C. with 5% carbon dioxide: 95% air atmosphere within the incubator. Experiments were completed in a 96-well plate where cells were seated at a density of 1×10^5 cells per well, 24 prior to stimulation with TLR agonists and antagonists. Lipids were dried under a stream of nitrogen, hydrated with phosphate-buffered saline (PBS) at 37° C. for one hour, followed by water bath sonication to create liposomes. Each condition for cell stimulation and antagonism was prepared in DMEM in a separate tube and consisted of: control, TLR agonist, TLR agonist+lipid, and lipid alone. 100 μL aliquots of medium+agonists+antagonists were added to each well and incubated at 37° C. for 4 hours. Subsequently, the media were collected, diluted and an enzyme-linked immunosorbent assay (ELISA) was performed to quantify TNFα release by cells.
The ability of xylitol lipid analogs to suppress the activation of TLR 2 heterodimers was assessed. Pam3Cys was used to selectively stimulate TLR 2/1 signaling in RAW264.7 cells and MALP-2 was used as a TLR 2/6 selective agonist also in RAW264.7 cells. RAW264.7 cells were stimulated with Pam3Cys in the absence, or presence of PX lipids for 4 hours. Following incubation, media were collected, diluted and analyzed for TNFα release as a consequence of TLR activation. Results for analog activity against TLR 2/1 activation was assessed at two concentrations of phospholipid and are summarized in FIGS. 4A and 4B.
Initially, activity of xylitol lipid analogs was assessed at 100 μg/mL and it was unclear whether there was a real antagonist effect especially when compared to POPG. Experiments were repeated with a 200 μg/mL concentration of lipid to determine the ability of PX lipids to suppress TLR 2/1 activation in the presence of Pam3Cys. […] DPPX could have an effect on TLR 2/1 signaling at high concentrations.

RSV = experiment: Western blot analysis of phospholipid interference with RSV binding to HEp2 cells; type: cell-based, human RSV A2 strain; conditions: 50 μg/mL lipid, MOI 2.5, 2 hr
Protocol: HEp2 cells were plated in a 48-well plate at a density of 1×10^5 per well, 48-hours prior to performing binding studies. A multiplicity of infection (MOI) of 2.5 was used and conditions of a control with no RSV, RSV alone and RSV plus 50 μg/mL of selected lipids were added to cells for a 2-hour incubation at 18° C. This lower temperature was used so that RSV would adsorb to the cell surface with minimal endocytosis. After binding, cells were washed 4 times with cold PBS to remove any unattached virus. 80 μL of SDS-PAGE loading buffer (sample buffer+protease inhibitor+DTT) was added to each well and the plate was set in boiling water for 1 minute to lyse cells and solubilize proteins. Cell lysates were recovered by scraping and pipteing and stored at −20° C. Subsequently, thawed lysates were boiled for 5 min, and proteins were resolved on 8-16% gradient Tris-SDS-polyacrylamide gels. The separated proteins were transferred to nitrocellulose membranes and subsequently incubated in blocking buffer containing 20 mM Tris-HCl buffer (pH 7.6), 137 mM NaCl, 0.1% Tween 20, and 5% nonfat milk for 1 hour. After blocking, primary RSV antibody conjugated to HRP was diluted 1:500 in blocking solution, added to the membrane and incubated overnight at 4° C. The membranes were washed with TBS containing 0.1% Tween for 30 min, replacing the buffer every 10 min. The immunoreactive protein was detected using coumaric acid and luminol reagents and exposed to film. Developed films were scanned and Image J software was used for protein quantification. Beta-Actin was used a control for amount of protein loaded.
Because binding of lipid to RSV in a biochemical assay was not a good predictor of antiviral activity, PX lipids were tested for activity preventing viral attachment to the surface of cells. HEp2 cells were plated in a 48-well plate at a density of 1×10^5 per well, 48 hours prior to viral adsorption. RSV was added to cells at multiplicity of infection (MOI) 2.5 in the absence or presence of 50 μg/mL of select xylitol lipids. […] The moderately effective antiviral, DPPX was selected and the ineffective antiviral, 14:0 DEPX was selected. Viral adsorption to cells was performed at 18° C. to minimize endocytosis. RSV was incubated with HEp2 cells for 2 hours, rotating the plate every 30 minutes. Cells were washed with cold PBS to remove unbound virus and cells were lysed and collected. Cell lysates were electrophoresed on an SDS-PAGE gel, and transferred to nitrocellulose membrane. The RSV G protein was detected with antibody and Beta-actin was used as a protein loading control. The results are summarized and quantified in FIGS. 9A and 9B. In more detail, monolayers of HEp2 cells were incubated with RSV at a stoichiometry of 2.5 infectious particles/cell, at 0° C., to prevent endocytosis of virions. Following a 2 hr incubation the monolayers were washed three times with cold saline to remove unbound virus, and then the cells were harvested in a denaturing solution. The cell extracts were subjected to electrophoresis under reducing and denaturing conditions and the separated proteins were transferred to nitrocellulose. Viral proteins were detected by immunoblotting with polyclonal anti-RSV antibody and enhanced chemiluminescence. The immunoreactive bands were normalized using actin immunoblots. The immunoreactive viral proteins were quantified using Image J software. […] In contrast, POPG (PG) inhibits viral attachment by ˜85%, and the xylitol phospholipids 14:0 DEPX, POPX, 16:1 DPPX AND 18:1 DEPX inhibit viral attachment in the range of 80-90%.

T1 sequence (Q9QUN7 25-784): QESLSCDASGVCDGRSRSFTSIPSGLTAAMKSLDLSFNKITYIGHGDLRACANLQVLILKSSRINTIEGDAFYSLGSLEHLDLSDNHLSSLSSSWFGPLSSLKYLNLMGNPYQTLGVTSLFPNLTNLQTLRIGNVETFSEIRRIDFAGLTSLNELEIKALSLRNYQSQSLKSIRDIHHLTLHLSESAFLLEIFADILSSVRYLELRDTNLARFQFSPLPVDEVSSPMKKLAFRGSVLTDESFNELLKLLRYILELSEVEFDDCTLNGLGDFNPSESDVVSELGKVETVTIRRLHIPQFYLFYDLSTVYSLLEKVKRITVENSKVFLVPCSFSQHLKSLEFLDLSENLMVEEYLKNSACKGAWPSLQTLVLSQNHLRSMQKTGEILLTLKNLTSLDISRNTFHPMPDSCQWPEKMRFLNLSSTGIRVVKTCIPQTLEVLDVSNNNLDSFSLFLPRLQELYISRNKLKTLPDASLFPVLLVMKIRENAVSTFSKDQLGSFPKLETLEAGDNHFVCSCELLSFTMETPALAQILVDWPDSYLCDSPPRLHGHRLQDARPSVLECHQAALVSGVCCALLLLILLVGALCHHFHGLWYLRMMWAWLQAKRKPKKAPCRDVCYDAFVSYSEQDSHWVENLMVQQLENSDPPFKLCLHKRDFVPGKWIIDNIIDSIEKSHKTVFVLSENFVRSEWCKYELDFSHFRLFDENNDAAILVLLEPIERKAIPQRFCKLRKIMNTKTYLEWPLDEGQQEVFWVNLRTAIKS
T1 sequence (Q9EPQ1 25-795 limits assumed): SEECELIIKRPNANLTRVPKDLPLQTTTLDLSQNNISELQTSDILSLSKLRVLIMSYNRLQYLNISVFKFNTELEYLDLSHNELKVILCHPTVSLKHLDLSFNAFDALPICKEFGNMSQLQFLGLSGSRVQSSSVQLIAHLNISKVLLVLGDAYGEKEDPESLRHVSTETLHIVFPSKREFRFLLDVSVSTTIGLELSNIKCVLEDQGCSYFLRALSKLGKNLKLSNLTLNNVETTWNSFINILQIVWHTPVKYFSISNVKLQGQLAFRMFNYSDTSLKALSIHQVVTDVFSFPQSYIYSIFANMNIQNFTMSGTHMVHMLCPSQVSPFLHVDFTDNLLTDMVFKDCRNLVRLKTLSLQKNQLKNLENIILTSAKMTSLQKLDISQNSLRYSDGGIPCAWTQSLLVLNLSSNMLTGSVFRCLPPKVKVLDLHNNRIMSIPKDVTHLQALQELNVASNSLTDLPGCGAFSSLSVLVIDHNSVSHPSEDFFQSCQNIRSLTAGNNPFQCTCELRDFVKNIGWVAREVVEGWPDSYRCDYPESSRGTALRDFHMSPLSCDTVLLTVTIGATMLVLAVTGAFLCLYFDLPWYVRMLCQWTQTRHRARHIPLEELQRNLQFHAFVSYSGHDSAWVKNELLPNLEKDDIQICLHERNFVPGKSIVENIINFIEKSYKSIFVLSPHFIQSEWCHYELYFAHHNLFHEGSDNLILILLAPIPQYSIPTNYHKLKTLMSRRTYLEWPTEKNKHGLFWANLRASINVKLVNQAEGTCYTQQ

Structure (SMILES) | suppression of TLR 2/1 activation (TNFα release) (TLR 2/1; 100 μg/mL lipid) | suppression of TLR 2/1 activation (TNFα release) (TLR 2/1; 200 μg/mL lipid) | inhibition of viral attachment to HEp2 cells (RSV) [%] | TLR2/1 antagonist activity (TLR 2/1) | inhibition of RSV attachment to HEp2 cells (RSV) | suppression of TLR 2/1 activation (TNFα release) (TLR 2/1; 200 μg/mL lipid, listed as 18:2 DEPX)
CCCCCCCC/C=C\CCCCCCCC(=O)O[C@H](COC(=O)CCCCCCCCCCCCCCC)COP(=O)(O)OCC(O)CO (stereo partly drawn) [POPG, palmitoyl-oleoyl-phosphatidylglycerol, reference compound] | markedly inhibited | markedly inhibited | ~85 |  |  | 
CCCCCCCCCCCCCC(=O)OC[C@H](COP(=O)(O)OCC(O)C(O)C(O)CO)OC(=O)CCCCCCCCCCCCC (mixture of isomers) [DMPX, sn-1-myristoyl, sn-2-myristoyl sn-3 glycerol phosphoxylitol] | ineffective at both concentrations | not effective antagonists |  |  |  | 
CCCCCCC=CCCCCCCCC(=O)OCC(COP(=O)(O)OCC(O)C(O)C(O)CO)OC(=O)CCCCCCCC=CCCCCCC (mixture of isomers) [16:1 DPPX, sn-1-palmitoleoyl, sn-2-palmitoleoyl sn-3 glycerol phosphoxylitol] | did not appear to suppress activation | inhibit TLR2/1 activation to almost the same extent as the bioactive lipid POPG; also recorded: strongly suppressed; also recorded: suppressed TLR 2/1 activation |  | + (cutoff being greater than a 50% reduction in cytokine secretion compared to activating TLR ligand alone) | prevented RSV attachment to HEp2 cells | 
CCCCCCCC/C=C\CCCCCCCC(=O)O[C@H](COC(=O)CCCCCCCCCCCCCCC)COP(=O)([O-])OCC[N+](C)(C)C [POPC, 1-palmitoyl-2-oleoyl-sn-glycero-3-phosphocholine, reference compound] | unaffected | unaffected |  |  | not inhibited | 
CCCCCCCCC=CCCCCCCCCOCC(COP(=O)(O)OCC(O)C(O)C(O)CO)OCCCCCCCCC=CCCCCCCCC (mixture of isomers) [18:1 DEPX, sn-1-O-octadecenyl, sn-2-O-octadecenyl sn-3 glycerol phosphoxylitol] | modest antagonists | inhibit TLR2/1 activation to almost the same extent as the bioactive lipid POPG; also recorded: strongly suppressed; also recorded: suppressed TLR 2/1 activation |  | + (cutoff being greater than a 50% reduction in cytokine secretion compared to activating TLR ligand alone) | inhibit attachment; also recorded: prevented RSV attachment to HEp2 cells | 
CCCCCCCCCCCCCCCCCC(=O)OCC(COP(=O)(O)OCC(O)C(O)C(O)CO)OC(=O)CCCCCCCCCCCCCCCCC (stereo not drawn) [DSPX, sn-1-stearoyl, sn-2-stearoyl sn-3 glycerol phosphoxylitol] | ineffective at both concentrations | not effective antagonists |  |  |  | 
CCCCCCCCCCCCCCCC(=O)OCC(COP(=O)(O)OCC(O)C(O)C(O)CO)OC(=O)CCCCCCCCCCCCCCC (stereo not drawn) [DPPX, sn-1-palmitoyl, sn-2-palmitoyl sn-3 glycerol phosphoxylitol] |  | weakly effective |  |  | not inhibited; also recorded: did not | 
CCCCCCCCCCCCCCOC[C@H](COP(=O)(O)OCC(O)C(O)C(O)CO)OCCCCCCCCCCCCCC (mixture of isomers) [14:0 DEPX, sn-1-O-myristyl, sn-2-O-myristyl sn-3 glycerol phosphoxylitol] | modest antagonists | inhibit TLR2/1 activation to almost the same extent as the bioactive lipid POPG; also recorded: strongly suppressed; also recorded: suppressed TLR 2/1 activation |  | + (cutoff being greater than a 50% reduction in cytokine secretion compared to activating TLR ligand alone) | appears to prevent viral binding to cells; also recorded: prevented RSV from binding to the cell surface | 
CCCCCC=CCC=CCCCCCCCC(=O)OCC(COP(=O)(O)OCC(O)C(O)C(O)CO)OC(=O)CCCCCCCC=CCC=CCCCCC (mixture of isomers) [18:2 DLPX, sn-1-linoleoyl, sn-2-linoleoyl sn-3 glycerol phosphoxylitol] | modest antagonists | strongly suppressed; also recorded: suppressed TLR 2/1 activation |  | + (cutoff being greater than a 50% reduction in cytokine secretion compared to activating TLR ligand alone) |  | inhibit TLR2/1 activation to almost the same extent as the bioactive lipid POPG
CCCCCCCC/C=C\CCCCCCCC(=O)O[C@H](COC(=O)CCCCCCCCCCCCCCC)COP(=O)(O)OCC(O)C(O)C(O)CO (stereo partly drawn) [POPX, sn-1-palmitoyl, sn-2-oleoyly sn-3 glycerol phosphoxylitol] | modest antagonists | inhibit TLR2/1 activation to almost the same extent as the bioactive lipid POPG; also recorded: strongly suppressed; also recorded: suppressed TLR 2/1 activation |  | + (cutoff being greater than a 50% reduction in cytokine secretion compared to activating TLR ligand alone) | prevented RSV attachment to HEp2 cells | 
CCCCCCCCC=CCCCCCCCC(=O)OCC(COP(=O)(O)OCC(O)C(O)C(O)CO)OC(=O)CCCCCCCC=CCCCCCCCC (mixture of isomers) [DOPX, sn-1-oleoyl, sn-2-oleoyl sn-3 glycerol phosphoxylitol] | modest antagonists | inhibit TLR2/1 activation to almost the same extent as the bioactive lipid POPG; also recorded: strongly suppressed; also recorded: suppressed TLR 2/1 activation |  | + (cutoff being greater than a 50% reduction in cytokine secretion compared to activating TLR ligand alone) | inhibit attachment | 

— patent US12472193B2, “Methods and compositions for treating and preventing respiratory related diseases and conditions with xylitol-headgroup lipid analogs” (National Jewish Health, priority 2017, dated 2025)
